Earlier results on one molecule are cited in patent US20120115783A1, “PEPTIDOMIMETIC MACROCYCLES” (Alleron therapeutics, Inc, priority 2008, published 2012).

This data set relates to HCT116 tumour xenografts.

With `CN1C(=O)[C@]2(Cc3cn([C@]45C[C@@]67SS[C@@](CO)(C(=O)N6[C@H]4Nc4ccccc45)N(C)C7=O)c4ccccc34)SS[C@@]1(CO)C(=O)N2C` [chetomin], the “growth of HCT116 tumour xenografts” value (HCT116 tumour xenografts) is recorded as “inhibited their growth”. In addition, the “hypoxia-inducible transcription within HCT116 tumour xenografts” value (within HCT116 tumour xenografts, pharmacological inhibition of HIF-1α) is “inhibited hypoxia-inducible transcription”.
